{"source": "patent US20230391871A1", "about": "“MONOAMINE OXIDASE BLOCKADE THERAPY FOR TREATING CANCER THROUGH REGULATING TUMOR ASSOCIATED MACROPHAGES (TAMS)” (THE REGENTS OF THE UNIVERSITY OF CALIFORNIA, priority 2020, published 2023)", "key": {"B16-OVA melanoma": {"system": "B16-OVA melanoma", "test": "B16-OVA melanoma syngeneic mouse tumour model", "format": "in vivo", "experimental": "(§1) (a) Experimental design. Wildtype BMDMs were stimulated with IL-4/IL-13 with or without MAOI treatment. MAOIs (monoamine oxidase inhibitors) studied were phenelzine (Phe: 20 μM), clorgyline (Clo: 20 μM), moclobemide (Moc: 200 μM), and pirlindole (Pir: 20 μM). NT, no MAOI treatment. (b) FACS analyses of ROS levels in BMDMs. (c) FACS analyses of CD206 expression on BMDMs. (d,e) QPCR analyses of Chi313 (d) and Arg1 (e) mRNA expression in BMDMs. f-j, Studying the TAM-related cancer immunotherapy potential of MAOI treatment in a B16-OVA melanoma syngeneic mouse tumour model (n=7-8). (f) Experimental design. B6 wildtype mice were treated with clodronate liposomes (Clod) to serve as TAM-depleted experimental mice, or treated with vehicle liposomes (Veh) to serve as TAM-intact control mice. Phe, phenelzine treatment: NT, no phenelzine treatment. (g) Tumour growth. (h) Tumour volume at day 18. (i) FACS analyses of CD206 expression on TAMs of TAM-intact experimental mice. (j) FACS analyses of intracellular Granzyme B production in tumour-infiltrating CD8^+ T cells of all experimental mice. k-o, Studying the cancer therapy potential of MAOI treatment in combination with anti-PD-1 treatment in the B16-OVA melanoma and MC38 colon cancer syngeneic mouse tumour models (n=5). (k) Experimental design. Tumour-bearing mice were treated with anti-PD-1 antibody (aPD-1) or isotype control (Iso), together with or without phenelzine (Phe) treatment. NT, no Phe treatment. (l) B16-OVA tumour growth. (m) B16-OVA tumour volume at day 18. (n) MC38 tumour growth. (o) MC38 tumour volume at day 27. Representative of 3 experiments. All data are presented as the mean±SEM. ns, not significant, *P<0.05, **P<0.01, and ***P<0.001, by I-way ANOVA (b-e, h, j, m, o) or by Student's t test (i).\nTumour-bearing mice treated with vehicle liposomes (Veh) were included as a control. The experimental design is shown in main FIG. 5F. FACS quantifications of TAMs (gated as CD45.2^+CD11b^+Ly6G^−Ly6C^−/lowF4/80^+ cells of total TIIs) are presented (n=7-8). b-f, Studying B16-OVA and MC38 tumour growth in B6 wildtype mice with or without phenelzine treatment (Phe or NT). (b) Experimental design. (c) B16-OVA tumour growth (n=10). (d) B16-OVA tumour volume at day 18. (e) MC38 tumour growth (n=6). (f) MC38 tumour volume at day 27. g-k, Studying B16-OVA and MC38 tumour growth in NSG mice with or without phenelzine treatment (Phe or NT: n=5). (g) Experimental design. (h) B16-OVA tumour growth. (i) B16-OVA tumour volume at day 18. (j) MC38 tumour growth. (k) MC38 tumour volume at day 21. Representative of 2 (a-f) and 4 (g-k) experiments.\nB16-OVA melanoma cells (1×10^6 per animal) or MC38 colon cancer cells (5×10^5 per animal) were subcutaneously (s.c.) injected into experimental mice to form solid tumours. In some experiments, mice received intraperitoneal (i.p.) injection of phenelzine (30 mg/kg/day) to block MAO-A activity. In some experiments, mice received i.p. injection of clodronate liposomes (200 μl/animal, twice per week) to deplete TAMs: mice received i.p. injection of vehicle liposomes ([…], twice per week) were included as controls. In some experiments, mice received i.p. injection of anti-mouse PD-1 antibodies (300 μg/animal, twice per week) to block PD-1: mice received i.p. injection of isotype antibodies were included as controls. During an experiment, tumour growth was monitored twice per week by measuring tumour size using a Fisherbrand™ Traceable™ digital caliper (Thermo Fisher Scientific): tumour volumes were calculated by formula 1/2×L×W^2."}, "MC38 colon cancer": {"system": "MC38 colon cancer", "experimental": "as §1, with “Tumour-bearing mice were treated with anti-PD-1 antibody (aPD-1) or isotype control (Iso), together with or without phenelzine (Phe) treatment. NT, no Phe treatment. (l) B16-OVA tumour growth. (m) B16-OVA tumour volume at day 18. (n) MC38 tumour growth. (o) MC38 tumour volume at day 27. Representative of 3 experiments. All data are presented as the mean±SEM. ns, not significant, *P<0.05, **P<0.01, and ***P<0.001, by I-way ANOVA (b-e, h, j, m, o) or by Student's t test (i).” left out\nTumour-bearing mice treated with vehicle liposomes (Veh) were included as a control. […] FACS quantifications of TAMs (gated as CD45.2^+CD11b^+Ly6G^−Ly6C^−/lowF4/80^+ cells of total TIIs) are presented (n=7-8). b-f, Studying B16-OVA and MC38 tumour growth in B6 wildtype mice with or without phenelzine treatment (Phe or NT). […]\nB16-OVA melanoma cells (1×10^6 per animal) or MC38 colon cancer cells (5×10^5 per animal) were subcutaneously (s.c.) injected into experimental mice to form solid tumours. […] During an experiment, tumour growth was monitored twice per week by measuring tumour size using a Fisherbrand™ Traceable™ digital caliper (Thermo Fisher Scientific): tumour volumes were calculated by formula 1/2×L×W^2."}, "[1]": {"conditions": "NSG mice, phenelzine vs no treatment"}}, "note": "Read-outs that look alike come from different tables or passages of the source."}
{"smiles": "NNCCc1ccccc1", "note": "[phenelzine]", "values": [{"measurement": "progression of pre-established B16-OVA solid tumours", "setting": "B16-OVA melanoma; B6 wildtype mice, phenelzine vs no treatment (FIG. 11b-d)", "value": "effectively suppressed"}, {"measurement": "growth of B16-OVA tumours in immunodeficient NSG mice", "setting": "B16-OVA melanoma; [1]", "value": "did not suppress"}, {"measurement": "CD206 expression on TAMs (FACS)", "setting": "B16-OVA melanoma; TAMs from phenelzine-treated TAM-intact B16-OVA tumour-bearing mice", "value": "decreased expression"}, {"measurement": "progression of pre-established B16-OVA solid tumours", "setting": "B16-OVA melanoma; combination study with anti-PD-1 antibody or isotype control (FIG. 5k-m), level comparable to anti-PD-1 alone", "value": "significantly suppressed"}, {"measurement": "Granzyme B production in tumour-infiltrating CD8+ T cells (FACS)", "setting": "B16-OVA melanoma; phenelzine-treated B16-OVA tumour-bearing mice", "value": "increased production"}, {"measurement": "B16-OVA tumour growth", "setting": "B16-OVA melanoma; tumour prevention model, B6 wildtype mice, TAM-intact, phenelzine 30 mg/kg/day i.p.", "value": "effectively suppressed"}, {"measurement": "B16-OVA tumour growth in TAM-depleted mice", "setting": "B16-OVA melanoma; tumour prevention model, B6 wildtype mice, TAMs depleted with clodronate liposomes, phenelzine vs no phenelzine", "value": "No tumour growth difference"}, {"measurement": "progression of pre-established MC38 solid tumours", "setting": "MC38 colon cancer; B6 wildtype mice, phenelzine vs no treatment (FIG. 11e,f)", "value": "effectively suppressed"}, {"measurement": "growth of MC38 tumours in immunodeficient NSG mice", "setting": "MC38 colon cancer; [1]", "value": "did not suppress"}, {"measurement": "progression of pre-established MC38 solid tumours", "setting": "MC38 colon cancer; combination study with anti-PD-1 antibody or isotype control (FIG. 5n,o), level comparable to anti-PD-1 alone", "value": "significantly suppressed"}]}
